Source: ChEMBL document CHEMBL2346598, “Synthesis and pharmacological characterization of 2-(acylamino)thiophene derivatives as metabolically stable, orally effective, positive allosteric modulators of the GABAB receptor” (J Med Chem, 2013)
The source made the active and inactive calls. The rule behind the calls is not given here.

What was measured:
Mus musculus [1] = assay: Hypnotic effect in DBA mouse assessed as increase in baclofen-induced duration of loss of righting reflex at 300 mg/kg, ig incubated for 30 mins prior to baclofen-challenge relative to vehicle-treated control; type: functional, organism-based; design: dose 300 mg/kg
Mus musculus [2] = assay: Hypnotic effect in DBA mouse assessed as reduction in baclofen-induced onset of loss of righting reflex over 10 mg/kg, ip incubated for 30 mins prior to baclofen-challenge relative to vehicle-treated control; type: functional, organism-based; design: dose 10 mg/kg
Mus musculus [3] = assay: Hypnotic effect in DBA mouse assessed as increase in baclofen-induced duration of loss of righting reflex at 100 to 300 mg/kg, ip incubated for 30 mins prior to baclofen-challenge relative to vehicle-treated control; type: functional, organism-based
Mus musculus [4] = assay: Hypnotic effect in DBA mouse assessed as potentiation of baclofen-induced loss of righting reflex at 300 mg/kg, ip incubated for 30 mins prior to baclofen-challenge; type: functional, organism-based; design: dose 300 mg/kg
Mus musculus [5] = assay: Hypnotic effect in DBA mouse assessed as potentiation of baclofen-induced loss of righting reflex at 100 mg/kg, ip incubated for 30 mins prior to baclofen-challenge; type: functional, organism-based; design: dose 100 mg/kg
Mus musculus [6] = assay: Hypnotic effect in ip dosed DBA mouse assessed as increase in baclofen-induced duration of loss of righting reflex incubated for 30 mins prior to baclofen-challenge; type: functional, organism-based
Mus musculus [7] = assay: Hypnotic effect in ip dosed DBA mouse assessed as reduction in baclofen-induced onset of loss of righting reflex incubated 30 mins prior to baclofen-challenge; type: functional, organism-based
Mus musculus [8] = assay: Hypnotic effect in DBA mouse assessed as potentiation of baclofen-induced loss of righting reflex at 30 mg/kg, ip incubated for 30 mins prior to baclofen-challenge; type: functional, organism-based; design: dose 30 mg/kg
Mus musculus [9] = assay: Hypnotic effect in DBA mouse assessed as potentiation of baclofen-induced loss of righting reflex at 10 mg/kg, ip incubated for 30 mins prior to baclofen-challenge; type: functional, organism-based; design: dose 10 mg/kg
Mus musculus [10] = assay: Hypnotic effect in DBA mouse assessed as potentiation of baclofen-induced loss of righting reflex at 3 mg/kg, ip incubated for 30 mins prior to baclofen-challenge; type: functional, organism-based; design: dose 3 mg/kg
NIH3T3 = assay: Cytotoxicity against mouse NIH/3T3 cells after 24 hrs by neutral red staining-based UV/visible spectrophotometric analysis; type: cell-based; conditions: NIH3T3, 24 h
Rattus norvegicus [11] = species: Rattus norvegicus; assay: Positive allosteric modulation of GABAB receptor in rat cortical membranes assessed as potentiation of GABA-induced [35S]GTPgammaS binding at 10 uM after 30 mins by liquid scintillation counting analysis relative to GABA; type: functional, cell membranes; conditions: Membrane
Mus musculus [12] = assay: Hypnotic effect in DBA mouse assessed as potentiation of baclofen-induced loss of righting reflex at 300 mg/kg, ig incubated for 30 mins prior to baclofen-challenge; type: functional, organism-based; design: dose 300 mg/kg
Mus musculus [13] = assay: Hypnotic effect in DBA mouse assessed as increase in pentobarbital-induced duration of loss of righting reflex at 300 mg/kg, ip incubated for 30 mins prior to pentobarbital-challenge; type: functional; conditions: route intraperitoneal
Mus musculus [14] = assay: Hypnotic effect in DBA mouse assessed as increase in pentobarbital-induced duration of loss of righting reflex at 100 mg/kg, ip incubated for 30 mins prior to pentobarbital-challenge; type: functional; conditions: route intraperitoneal
Mus musculus [15] = assay: Hypnotic effect in DBA mouse assessed as increase in pentobarbital-induced duration of loss of righting reflex at 30 mg/kg, ip incubated for 30 mins prior to pentobarbital-challenge; type: functional; conditions: route intraperitoneal
Mus musculus [16] = assay: Hypnotic effect in DBA mouse assessed as reduction in pentobarbital-induced onset of loss of righting reflex at 300 mg/kg, ip incubated for 30 mins prior to pentobarbital-challenge (reference value: 60.0 +/- 0.0 min); type: functional; conditions: route intraperitoneal
Mus musculus [17] = assay: Hypnotic effect in DBA mouse assessed as reduction in pentobarbital-induced onset of loss of righting reflex at 100 mg/kg, ip incubated for 30 mins prior to pentobarbital-challenge (reference value: 60.0 +/- 0.0 min); type: functional; conditions: route intraperitoneal
Mus musculus [18] = assay: Hypnotic effect in DBA mouse assessed as reduction in pentobarbital-induced onset of loss of righting reflex at 30 mg/kg, ip incubated for 30 mins prior to pentobarbital-challenge (reference value: 60.0 +/- 0.0 min); type: functional; conditions: route intraperitoneal
Mus musculus [19] = assay: Hypnotic effect in DBA mouse assessed as potentiation of pentobarbital-induced loss of righting reflex at 300 mg/kg, ip incubated for 30 mins prior to pentobarbital-challenge; type: functional, organism-based; design: dose 300 mg/kg
Mus musculus [20] = assay: Hypnotic effect in DBA mouse assessed as potentiation of pentobarbital-induced loss of righting reflex at 100 mg/kg, ip incubated for 30 mins prior to pentobarbital-challenge; type: functional, organism-based; design: dose 100 mg/kg
Mus musculus [21] = assay: Hypnotic effect in DBA mouse assessed as potentiation of pentobarbital-induced loss of righting reflex at 30 mg/kg, ip incubated for 30 mins prior to pentobarbital-challenge; type: functional, organism-based; design: dose 30 mg/kg
Mus musculus [22] = assay: Hypnotic effect in DBA mouse assessed as reduction in baclofen-induced onset of loss of righting reflex at 300 mg/kg, ig incubated for 30 mins prior to baclofen-challenge relative to vehicle-treated control; type: functional, organism-based; design: dose 300 mg/kg
Mus musculus [23] = assay: Hypnotic effect in DBA mouse assessed as increase in baclofen-induced duration of loss of righting reflex over 3 mg/kg, ip incubated for 30 mins prior to baclofen-challenge relative to vehicle-treated control; type: functional, organism-based; design: dose 3 mg/kg
Mus musculus [24] = assay: Hypnotic effect in DBA mouse assessed as potentiation of baclofen-induced loss of righting reflex at 1 mg/kg, ip incubated for 30 mins prior to baclofen-challenge; type: functional, organism-based; design: dose 1 mg/kg
Plasma = assay: Metabolic stability in mouse plasma at 5 uM after 30 mins by HPLC-MS analysis; type: ADME, cell-free; conditions: 0.5 h
[25] = Drug metabolism in mouse liver microsomes at 5 uM after 60 mins by LC/MS/MS analysis; type: ADME, Microsome; conditions: read-out: Drug metabolism
[26] = Intrinsic clearance in mouse liver microsomes assessed per mg protein at 5 uM after 60 mins by LC/MS/MS analysis; type: ADME, Microsome; conditions: read-out: CLH
[27] = Elimination rate constant in mouse liver microsomes at 5 uM after 60 mins by LC/MS/MS analysis; type: ADME, Microsome
Rattus norvegicus [28] = species: Rattus norvegicus; assay: Positive allosteric modulation of GABAB receptor in rat cortical membranes assessed as potentiation of GABA-induced [35S]GTPgammaS binding at 30 uM after 30 mins by liquid scintillation counting analysis relative to GABA; type: functional, cell membranes; conditions: Membrane
[29] = (§1) Positive allosteric modulation of GABAB receptor in rat cortical membranes assessed as potentiation of GABA-induced [35S]GTPgammaS binding after 30 mins by liquid scintillation counting analysis; type: functional, cell membranes, Membrane
Rattus norvegicus [30] = species: Rattus norvegicus; assay: Positive allosteric modulation of GABAB receptor in rat cortical membranes assessed as stimulation of [35S]GTPgammaS binding up to 100 uM after 30 mins by liquid scintillation counting analysis; type: functional, cell membranes; conditions: Membrane
Rattus norvegicus [31] = species: Rattus norvegicus; assay: Positive allosteric modulation of GABAB receptor in rat cortical membranes assessed as potentiation of GABA-induced [35S]GTPgammaS binding at 25 uM after 30 mins by liquid scintillation counting analysis relative to GABA; type: functional, cell membranes; conditions: Membrane
Rattus norvegicus [32] = species: Rattus norvegicus; assay: Positive allosteric modulation of GABAB receptor in rat cortical membranes assessed as potentiation of GABA-induced [35S]GTPgammaS binding at 2.5 uM after 30 mins by liquid scintillation counting analysis relative to GABA; type: functional, cell membranes; conditions: Membrane
Mus musculus [33] = assay: Hypnotic effect in ip dosed DBA mouse assessed as potentiation of pentobarbital-induced loss of righting reflex incubated for 30 mins prior to pentobarbital-challenge; type: functional, organism-based
Mus musculus [34] = assay: Hypnotic effect in DBA mouse assessed as increase in baclofen-induced duration of loss of righting reflex over 10 mg/kg, ip incubated for 30 mins prior to baclofen-challenge relative to vehicle-treated control; type: functional, organism-based; design: dose 10 mg/kg
Mus musculus [35] = assay: Hypnotic effect in DBA mouse assessed as increase in baclofen-induced duration of loss of righting reflex over 30 mg/kg, ip incubated for 30 mins prior to baclofen-challenge relative to vehicle-treated control; type: functional, organism-based; design: dose 30 mg/kg
Mus musculus [36] = assay: Hypnotic effect in DBA mouse assessed as reduction in baclofen-induced onset of loss of righting reflex over 1 mg/kg, ip incubated for 30 mins prior to baclofen-challenge relative to vehicle-treated control; type: functional, organism-based; design: dose 1 mg/kg
[37] = Ratio of compound IC50 to COR628 IC50 for mouse NIH/3T3 cells; type: ADME, cell-based, NIH3T3; conditions: read-out: Ratio IC50
[38] = Ratio of compound IC50 to COR627 IC50 for mouse NIH/3T3 cells; type: ADME, cell-based, NIH3T3; conditions: read-out: Ratio IC50
Rattus norvegicus [39] = species: Rattus norvegicus; assay: as §1; type: functional, cell membranes; conditions: Membrane

| SMILES | Activity (Mus musculus [1]) | Activity (Mus musculus [2]) | Activity (Mus musculus [4]) | Activity (Mus musculus [5]) | Activity (Mus musculus [6]) | Activity (Mus musculus [7]) | Activity (Mus musculus [8]) | Activity (Mus musculus [9]) | Activity (Mus musculus [10]) | IC50 (NIH3T3) | Activity (Mus musculus [12]) | Time (Mus musculus [13]) | Time (Mus musculus [14]) | Time (Mus musculus [15]) | Time (Mus musculus [16]) | Time (Mus musculus [17]) | Time (Mus musculus [18]) | Activity (Mus musculus [19]) | Activity (Mus musculus [20]) | Activity (Mus musculus [22]) | further results |
| --- | --- | --- | --- | --- | --- | --- | --- | --- | --- | --- | --- | --- | --- | --- | --- | --- | --- | --- | --- | --- | --- |
| CSc1nc(NC2CCCC2)c([N+](=O)[O-])c(NC2CCCC2)n1 [GS-39783] | Active | Active | Active | Active | Dose-dependent effect | Dose-dependent effect | Active | Active | inactive | 60 µM | Active | 2.3 min | 0 min | 0 min | 57.3 min | 60 min | 60 min | Active | inactive | Active | Activity (Mus musculus [3]): Active; Activity (Rattus norvegicus [11]): 59%; Activity (Mus musculus [21]): inactive |
| CCc1c(C)sc(NC(=O)c2ccc(C(F)(F)F)cc2)c1C(=O)OC | Active | Active | Active | Active | Dose-dependent effect | Dose-dependent effect | Active | Active | Active | 54 µM | Active | 23.3 min | 7 min | 2.3 min | 31.3 min | 45.2 min | 54 min | Active | inactive | Active | Activity (Mus musculus [23]): Active; Activity (Mus musculus [24]): Active; Stability (Plasma): Unstable; metabolised at 1 h, 5 µM [25]: 40%; microsomal CLint at 5 µM [26]: 12 µL/min/mg; k el at 1 h, 5 µM [27]: 0.000192 s⁻¹; Emax (Rattus norvegicus [28]): 60%; EC50 [29]: 0.28 µM; Activity (Rattus norvegicus [30]): inactive; Activity (Rattus norvegicus [31]): 27.3%; Activity (Rattus norvegicus [32]): 17.8%; Activity (Mus musculus [33]): Dose-dependent effect; Activity (Mus musculus [21]): inactive |
| CCc1c(C)sc(NC(=O)c2ccc(Cl)cc2)c1C(=O)OC | Active | Active | Active | Active | Dose-dependent effect | Dose-dependent effect | Active | Active | Active | 59 µM | Active | 7.3 min | 4.8 min | 0 min | 45.8 min | 51.8 min | 60 min | Active | inactive | Active | Activity (Mus musculus [34]): Active; Activity (Mus musculus [24]): Active; Stability (Plasma): Unstable; metabolised at 1 h, 5 µM [25]: 28%; microsomal CLint at 5 µM [26]: 7.9 µL/min/mg; k el at 1 h, 5 µM [27]: 0.000127 s⁻¹; Emax (Rattus norvegicus [28]): 51%; EC50 [29]: 1.11 µM; Activity (Rattus norvegicus [30]): inactive; Activity (Rattus norvegicus [31]): 18.3%; Activity (Rattus norvegicus [32]): 9.2%; Activity (Mus musculus [21]): inactive |
| CCc1c(C)sc(NC(=O)c2ccc(C(C)(C)C)cc2)c1C(=O)OC | Active |  | Active | Active | Dose-dependent effect | Dose-dependent effect | Active | Active | Active | 140 µM | Active |  |  |  |  |  |  |  |  | Active | Activity (Mus musculus [35]): Active; Activity (Mus musculus [36]): Active; Activity (Mus musculus [24]): Active; Stability (Plasma): Unstable; metabolised at 1 h, 5 µM [25]: 32%; microsomal CLint at 5 µM [26]: 8.98 µL/min/mg; k el at 1 h, 5 µM [27]: 0.000144 s⁻¹; selectivity ratio [37]: 4; selectivity ratio [38]: 4; Activity (Rattus norvegicus [39]): inactive; Activity (Rattus norvegicus [30]): inactive; Activity (Rattus norvegicus [31]): 23.2%; Activity (Rattus norvegicus [32]): 19% |
